Test systems include IGROV-1; NCI-H23; Malme-3M; DU-145; HCT-15; OVCAR-5; OVCAR-4; Hs-578T; UACC-257; HOP-92; NCI-H460; HL-60; MDA-MB-435; MDA-MB-231; UO-31; SF-295; SN12C; NCI-H522; T47D.
Holding throughout (test): inhibition of tumour cell growth, NCI panel, 48 h

Each structure is given as a SMILES string.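 Dose response: 5 concentrations. Exposure: 48 h. Format: 96-well plates. Endpoint: linear interpolation; highest concentration if not reached. The concentration for 50% growth inhibition is given as GI50.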 Calls of active or inactive are those of the source. Rule as the data show it: active = GI50 up to about 1.1 µM and inactive = higher. Bounds are passed on as bounds.

Consider `COc1ccc(OC)c([N+](=O)[O-])c1-c1nc2sc(C)c(C)n2c1/C=N/N=C(N)N`, for which the GI50 is 27.3 µM (inactive) in the assay on IGROV-1; > 100 µM (inactive) with NCI-H23; 60.7 µM (inactive) with Malme-3M; > 100 µM (inactive) with DU-145; over 100 µM in the assay on HCT-15; > 100 µM (inactive) in the assay on OVCAR-5. The GI50 with OVCAR-4 is 95.7 µM (inactive); in the assay on Hs-578T, 48.3 µM (inactive); in the assay with UACC-257, > 100 µM (inactive); in the assay with HOP-92, 61 µM (inactive); in the assay on NCI-H460, 91.6 µM (inactive); with HL-60, 25.6 µM (inactive). The GI50 in the assay with MDA-MB-435 was 43.1 µM (inactive); in the assay on MDA-MB-231 it was 76.7 µM (inactive); with UO-31, > 100 µM (inactive); in the assay with SF-295, 84.1 µM (inactive); in the assay with SN12C it was > 100 µM (inactive); in the assay on NCI-H522, 41.8 µM (inactive). In addition, the GI50 in the assay on T47D is 23.4 µM (inactive).

For `COC(=O)c1ccccc1C1CN=NC12Cc1ccc(C)c(C)c1C2=O` (stereo not given), the GI50 was > 100 µM (inactive) with IGROV-1; 19.1 µM (inactive) in the assay on NCI-H23; > 100 µM (inactive) in the assay on Malme-3M; > 100 µM (inactive) in the assay on DU-145; 33.9 µM with HCT-15; > 100 µM (inactive) with OVCAR-5. In addition, the GI50 is 31.6 µM (inactive) in the assay on OVCAR-4; > 100 µM (inactive) in the assay on Hs-578T; 25.8 µM (inactive) in the assay with UACC-257; 28.2 µM (inactive) in the assay on HOP-92; 52.4 µM (inactive) with NCI-H460; 16.3 µM (inactive) with HL-60. Moreover, the GI50 in the assay with MDA-MB-435 is 64.3 µM (inactive); in the assay on MDA-MB-231, 40.2 µM (inactive); with UO-31 it was 93.8 µM (inactive); with SF-295, 46.5 µM (inactive); in the assay with SN12C it was > 100 µM (inactive); with NCI-H522, 6.84 µM (inactive). In addition, the GI50 in the assay on T47D is 20.5 µM (inactive).

Consider `CC1(C)CC[C@]2(C(=O)O)CC[C@]3(C)C(=CC[C@@H]4[C@@]5(C)CC[C@H](OC6OC(CO)C(O)C(O)C6O)C(C)(C)[C@@H]5CC[C@]43C)[C@@H]2C1` (stereo not given in full), for which the GI50 in the assay with IGROV-1 is 1.58 µM (inactive); in the assay with NCI-H23 it was 1.99 µM (inactive); in the assay with Malme-3M, 1.67 µM (inactive); in the assay with DU-145, 1.98 µM (inactive); in the assay on HCT-15, 2.75 µM; in the assay with OVCAR-5, 1.9 µM (inactive). Further, the GI50 in the assay on OVCAR-4 was 1.61 µM (inactive); with Hs-578T, 2.26 µM (inactive); in the assay with UACC-257 it was 1.69 µM (inactive); with HOP-92, 1.68 µM (inactive); in the assay with NCI-H460, 3.61 µM (inactive); in the assay with HL-60, 2 µM (inactive). For the same molecule, the GI50 with MDA-MB-435 is 1.87 µM (inactive); in the assay on MDA-MB-231, 1.66 µM (inactive); in the assay on UO-31 it was 1.71 µM (inactive); with SF-295 it was 1.78 µM (inactive); with SN12C, 1.7 µM (inactive); in the assay on NCI-H522, 1.45 µM (inactive). The GI50 in the assay on T47D is 1.82 µM (inactive).

Regarding `O=C1CSC(=S)N1/N=C/c1ccc(Cl)c([N+](=O)[O-])c1`, the GI50 in the assay with IGROV-1 was 36.7 µM (inactive); with NCI-H23, 17.9 µM (inactive); with Malme-3M it was 19.1 µM (inactive); in the assay with DU-145, 36.6 µM (inactive); in the assay with HCT-15 it was 20.2 µM; in the assay with OVCAR-5, > 100 µM (inactive). The GI50 in the assay on OVCAR-4 was 22.5 µM (inactive); with Hs-578T it was 37.8 µM (inactive); in the assay with UACC-257 it was 23.8 µM (inactive); with HOP-92 it was 27.6 µM (inactive); in the assay on NCI-H460, 41.3 µM (inactive); in the assay on HL-60, 24.2 µM (inactive). The GI50 is 20.7 µM (inactive) in the assay on MDA-MB-435; 21.3 µM (inactive) with MDA-MB-231; 27.6 µM (inactive) in the assay on UO-31; 24.8 µM (inactive) with SF-295; 25.8 µM (inactive) in the assay with SN12C; 18.3 µM (inactive) in the assay with NCI-H522. The GI50 in the assay with T47D was 23 µM (inactive).

With `O=C(O)CCC(=O)c1ccc2ccc3cccc4ccc1c2c34`, the GI50 is 70.3 µM (inactive) in the assay on IGROV-1; > 100 µM (inactive) in the assay with NCI-H23; > 100 µM (inactive) in the assay with Malme-3M; > 100 µM (inactive) with DU-145; 38 µM in the assay on HCT-15; > 100 µM (inactive) in the assay with OVCAR-5. The GI50 in the assay on OVCAR-4 is > 100 µM (inactive); with Hs-578T it was > 100 µM (inactive); with UACC-257, 33 µM (inactive); in the assay on HOP-92, > 100 µM (inactive); in the assay with NCI-H460, 39.3 µM (inactive); in the assay on HL-60, 23 µM (inactive). In addition, the GI50 is 98.2 µM (inactive) with MDA-MB-435; 64 µM (inactive) in the assay with MDA-MB-231; 94.6 µM (inactive) with UO-31; 70.6 µM (inactive) with SF-295; 57 µM (inactive) with SN12C; 83.8 µM (inactive) in the assay with NCI-H522. Also, in the assay on T47D, the GI50 was 83 µM (inactive).

Values taken from ChEMBL document CHEMBL1201862, “PubChem BioAssay data set” (2004).
